Legend:
rat paw oedema = assay: Carrageenin-induced rat paw oedema model; type: in vivo, Wistar rats; conditions: for percentage of growth of the paw after injection of carrageneen: 1 h before carrageenin, paw weighed 3 h after, mean±standard deviation, n=6, control 96 ± 8.7
Procedure: The activity of the derivatives has also been evaluated by using a rat paw oedema pharmacological model.
In Carrageenin-induced rat paw oedema model, Wistar rats were used. The mean weight of the animals was 250 g. The animals were treated with an intraperitoneal injection of the drug at the appropriate concentration (solution at the concentration of 10 mg/mL in DMSO). Lambda carrageenin (0.1 mL; 1%) was injected one hour later in the plantar region of the right hand paw. Three hours thereafter, the rats were euthanasied by injection of nembutal (100 mg/kg) and the paws were cutted at the ankle. The swelling was calculated as a percentage increase in the weight of the control paw.
Results are expressed as percentage of growth of the paw after injection of carrageneen (mean±standard deviation, n=6).

COX-2 = target: T1, COX-2 (Homo sapiens, UniProt P35354); assay: whole blood assay, COX-2 inhibition; type: cell-based
T1 construct: endogenous in cells; host or cells: whole blood (blood cells)
T1 sequence (P35354 18-604): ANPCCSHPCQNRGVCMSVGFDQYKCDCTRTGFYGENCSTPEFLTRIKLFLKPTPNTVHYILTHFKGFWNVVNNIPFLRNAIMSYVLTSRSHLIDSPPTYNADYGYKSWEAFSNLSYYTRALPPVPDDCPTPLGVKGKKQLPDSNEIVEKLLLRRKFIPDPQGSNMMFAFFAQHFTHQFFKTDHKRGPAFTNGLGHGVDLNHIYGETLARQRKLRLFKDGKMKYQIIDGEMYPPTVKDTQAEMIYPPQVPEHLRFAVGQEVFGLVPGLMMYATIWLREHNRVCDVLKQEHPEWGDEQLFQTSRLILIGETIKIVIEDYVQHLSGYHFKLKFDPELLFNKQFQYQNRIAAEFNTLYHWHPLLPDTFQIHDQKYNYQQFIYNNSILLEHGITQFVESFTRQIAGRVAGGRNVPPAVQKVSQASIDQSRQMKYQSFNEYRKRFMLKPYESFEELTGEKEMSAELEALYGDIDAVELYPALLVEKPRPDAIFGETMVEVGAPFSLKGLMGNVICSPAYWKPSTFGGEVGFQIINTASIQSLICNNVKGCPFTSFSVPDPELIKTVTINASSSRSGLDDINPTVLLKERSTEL

activity as COX-2 inhibitor (in words) (COX-2; conclusion from Table 1): active as COX-2 inhibitor
IC50 (COX-2; estimated IC50, whole blood assay): 400 nM
SMILES: O=S(=O)(Nc1ccncc1Oc1ccccc1)C(F)(F)F [Compound 1, N-(3-phenoxy-4-pyridinyl)trifluoromethane-sulfonamide]
percentage of growth of the paw after injection of carrageneen (rat paw oedema; 5 mg/kg intraperitoneal): 101.0 ± 8.1 percentage
percentage of growth of the paw after injection of carrageneen (rat paw oedema; 10 mg/kg intraperitoneal): 74.7 ± 7.2 percentage
percentage of growth of the paw after injection of carrageneen (rat paw oedema; 30 mg/kg intraperitoneal): 54.1 ± 17.5 percentage
anti-inflammatory effect in vivo (in words) (rat paw oedema; conclusion from Table 2): presents an anti-inflammatory effect in vivo
